Data reported in ChEMBL document CHEMBL1275558 (Antimicrob Agents Chemother, 2008).

What was measured:
[1] = Cytotoxicity against human foreskin fibroblast cell infected with Toxoplasma gondii; assay type: cell-based; settings: read-out: TD50 (the source's name)
Toxoplasma gondii = assay: Antimicrobial activity against Toxoplasma gondii; assay type: functional; settings: read-out: ID50 (the source's name)
[2] = Therapeutic index, ration of TD50 for human foreskin fibroblast cell infected with Toxoplasma gondii to ID 50 for Toxoplasma gondii; assay type: cell-based; settings: read-out: TI

Row | SMILES | CC50 [1] | IC50 (Toxoplasma gondii) | selectivity ratio [2]
1 | O=C1Nc2cc(Br)ccc2/C1=C1/Nc2ccccc2/C1=N\O [6BIO] | 16 µM |  | 
2 | O=Nc1c(-c2c(O)[nH]c3ccc([N+](=O)[O-])cc23)[nH]c2ccccc12 | 27 µM | 1.1 µM | 25
3 | O=C1Nc2ccc(S(=O)(=O)O)cc2/C1=C1/Nc2ccccc2/C1=N\O | > 500 µM | > 500 µM | 
4 | CC(=O)N1C(=O)/C(=C2\Nc3ccccc3C2=O)c2ccccc21 | > 500 µM | 30 µM | > 16
5 | Cc1ccc2[nH]c(O)c(C3=Nc4ccccc4C3=O)c2c1 | > 500 µM | > 500 µM | 
6 | O=C1Nc2cc(Cl)c(Br)cc2/C1=C1/Nc2ccccc2/C1=N\O | > 500 µM | 2.4 µM | > 210
7 | O=C1c2cc(I)ccc2-n2c1nc1ccccc1c2=O | > 500 µM | 0.02 µM | 
8 | O=Nc1c(-c2c(O)[nH]c3ccccc23)[nH]c2ccccc12 [INDIRUBIN-3-MONOXIME] | > 500 µM | 3.6 µM | > 139
9 | O=C1c2cc(Br)ccc2-n2c1nc1ccccc1c2=O | > 500 µM | 0.003 µM | > 160000
10 | O=C1Nc2ccc(Br)cc2/C1=C1/Nc2ccccc2/C1=N\O [INDIRUBIN 2] | 17 µM | 1.8 µM | 9
11 | O=C1Nc2ccc(Cl)cc2/C1=C1/Nc2ccccc2/C1=N\O | 51 µM | 2.2 µM | 23
12 | O=C1C(c2c(O)[nH]c3ccc(Cl)cc23)=Nc2ccccc21 | > 500 µM | 60 µM | > 8
13 | O=C1Nc2ccc(F)cc2/C1=C1/Nc2ccccc2/C1=N\O | 61 µM | 0.52 µM | 120
14 | O=C1C(c2c(O)[nH]c3ccc(S(=O)(=O)O)cc23)=Nc2ccccc21 | > 500 µM | > 500 µM | 
15 | O=C1C(c2c(O)[nH]c3ccc(Br)cc23)=Nc2ccccc21 | > 500 µM | 27 µM | > 19
16 | O=C1c2ccc(Br)cc2-n2c1nc1ccccc1c2=O | > 500 µM | 3 µM | > 160
17 | O=Nc1c(-c2c(O)[nH]c3ccc(I)cc23)[nH]c2ccccc12 | 47 µM | 9.7 µM | 5

Row | SMILES | CC50 [1] | IC50 (Toxoplasma gondii) | selectivity ratio [2]
18 | O=C1C(c2c(O)[nH]c3ccc(F)cc23)=Nc2ccccc21 | > 500 µM | > 500 µM | 
19 | CC(=O)O/N=C1/C(=C2/C(=O)Nc3cc(Br)ccc32)Nc2ccccc21 [6-BROMOINDIRUBIN-3'-ACETOXIME] | 46 µM | 3.7 µM | 12
20 | O=C1Nc2ccccc2/C1=C1/Nc2ccccc2C1=O [INDIRUBIN] | > 500 µM | > 500 µM | 
21 | Cc1ccc2c(c1)C(=O)c1nc3ccccc3c(=O)n1-2 | > 500 µM | 0.082 µM | > 6100
22 | CC(=O)O/N=C1/C(c2c(O)[nH]c3ccccc23)=Nc2ccccc21 | 22 µM | 0.21 µM | 100
23 | O=C1C(c2c(O)[nH]c3ccc(I)cc23)=Nc2ccccc21 | 240 µM | 22 µM | 11
24 | O=C1c2ccccc2-n2c1nc1ccccc1c2=O [TRYPTANTHRIN] | 62 µM | 0.031 µM | 2000
25 | O=C1c2cc(Cl)ccc2-n2c1nc1ccccc1c2=O | 360 µM | 0.011 µM | 33000
26 | O=C1C(c2c(O)[nH]c3cc(Cl)ccc23)=Nc2ccccc21 | > 500 µM | > 500 µM | 
27 | O=C1c2ccc(Cl)cc2-n2c1nc1ccccc1c2=O | > 500 µM | 6.3 µM | > 80
28 | O=C1Nc2ccccc2/C1=C1/Nc2ccccc2/C1=N\OCC(O)CO (stereo not given) | > 500 µM | 230 µM | > 2
29 | O=C1c2cc(Br)c(Cl)cc2-n2c1nc1ccccc1c2=O | 100 µM | 1.7 µM | 59
30 | Cc1ccc2c(c1)/C(=C1/Nc3ccccc3/C1=N\O)C(=O)N2 | > 500 µM | > 500 µM | 
31 | O=C1Nc2cc(Cl)c(Br)cc2/C1=C1/Nc2ccccc2C1=O | > 500 µM | > 500 µM | 
32 | O=C1C(c2c(O)[nH]c3ccc([N+](=O)[O-])cc23)=Nc2ccccc21 | > 500 µM | > 500 µM | 
33 | O=C1c2cc(F)ccc2-n2c1nc1ccccc1c2=O | 63 µM | 0.002 µM | 31500
34 | O=Nc1c(-c2c(O)[nH]c3cc(Cl)ccc23)[nH]c2ccccc12 | 20 µM | 0.18 µM | 110
